Laboratory results taken from patent publication US10696731B2, “Oligopeptide-free cell culture media” (Baxalta GmbH, priority 2006, dated 2020).

Assays:
GD8/6 cells [1] = assay: Small scale spinner flask culture of GD8/6 cells in BAV-medium: FVIII productivity and growth rate; conditions: added to BAV-medium, range 0-18 mg/L; spinner flasks 200 ml
Method: Cell counts from suspension cells or immobilized cells were determined either by counting with a CASY® cell counter as described by Scharfe et al., Biotechnologie in LaborPraxis 10: 1096-1103 (1988), or by citric acid extraction and fluorescent staining of the nuclei followed by counting with a NucleoCounter® (Chemometec, DK). The specific growth rate (p) is calculated from the increase of the cell densities(Xt) and/or the dilution rate (D) of the steady state of chemostat cultures of suspensions cells over a certain time interval (t): μ=D+ln(Xt/XO)/t
The activity of Factor VIII (FVIII) (cf. FIGS. 1 to 5) was measured by a chromogenic assay (Chromogenic, Sweden).
The cell specific productivity (qp) is defined as the specific amount of produced protein (U or μg) per number of cells per day.
Small scale experiments with GD8/6 cells in suspension culture were carried out in Techne spinner flasks at 200 ml working volume in batch refeed mode at 37° C., without pH and pO2 control.

GD8/6 cells [2] = assay: FVIII expression and growth of GD8/6 cells in 10 L chemostat culture with BAV-medium; type: cell-based
Method: The volumetric productivity (QP) is calculated from the amount of activity units yielded per liter reactor volume per day (U/L/d) in the production system.
Cell cultures of recombinant mammalian cells (e.g., CHO-cells stably expressing Factor VIII, such as GD8/6 cells) were grown in suspension in a chemostat culture in 10 l bioreactors. The culture conditions of 37° C., oxygen saturation 20%, and pH 7.0 to 7.1 were kept constant. The cultures were supplied with a constant feed of BAV-medium.

[3] = 2 mg/L plus additional supplementation with Fe (II) and Cu (II)

## NCCC[C@H](N)C(=O)O [Ornithine]
GD8/6 cells [1]
  ability to substitute putrescine (FVIII productivity and growth): could partially substitute putrescine in a concentration-dependent manner

## NCCCCN [Putrescine.2HCl]
GD8/6 cells [2]; 2 mg/L plus Fe (II) and Cu (II), after a further increase of the cell density
  volumetric productivity: over 3000 U/L/D
GD8/6 cells [2]; [3]
  cell specific productivity: over 1700 mU/10E06 cells/day
  specific growth rate: approximately 0.60 d^−1
  volumetric productivity: over 2685 U/L/D
GD8/6 cells [2]; addition of 2 mg/L after 11 days of continuous feed of BAV-medium, 10 L bioreactor
  increase of volumetric FVIII-expression: 800%
GD8/6 cells [2]; addition of 2 mg/L, BAV-medium without it averaged 271 U/L/D
  FVIII expression (volumetric productivity): 870 U/L/D

## NCCO [ethanolamine, reference compound]
GD8/6 cells [1]
  ability to substitute putrescine (FVIII productivity and growth): could neither replace putrescine in any concentration investigated

## NCCCNCCCCNCCCN [spermine]
GD8/6 cells [1]
  ability to substitute putrescine (FVIII productivity and growth): could also substitute putrescine in a concentration-dependent manner
